Source: publication PMC10771296, “Plectasin: from evolution to truncation, expression, and better druggability” (Frontiers in Microbiology, 2023)
In brackets after ≈: the same amount, converted by molar mass. Where a SMILES comes first, the peptide text is derived from it. Bridges are numbered along the chain shown (N, C = ends).

Legend:
S. aureus ATCC25923 = assay: MIC/MBC, micro broth dilution; assay type: cell-based, Staphylococcus aureus
Procedure: (§1) The minimum inhibitory concentration (MIC) of the peptides was assayed using the micro broth dilution method, which is an important indicator of the antibacterial activity of the AMPs ([Liu et al., 2021]). […] The MIC was defined as the lowest concentration of ones at which no visible bacterial growth was observed. All the assays were repeated thrice.

S. aureus ATCC43300 [1] = assay: MIC/MBC, micro broth dilution; assay type: cell-based, Staphylococcus aureus
Procedure: as §1

S. aureus CVCC546 = assay: MIC/MBC, micro broth dilution; assay type: cell-based, Staphylococcus aureus
Procedure: as §1

S. aureus E48 = assay: MIC/MBC, micro broth dilution; assay type: cell-based, Staphylococcus aureus
Procedure: as §1

[2] = system: S. agalactiae CAU-FRI-2022-02; assay: MIC/MBC, micro broth dilution; assay type: cell-based
Procedure: as §1

Streptococcus = assay: MIC, summary over the panel; assay type: cell-based; settings: including S. agalactiae ATCC13813, S. dysgalactiae CVCC3938, S. agalactiae CAU-FRI-2022-02
Procedure: as §1

gram-negative bacteria = assay: MIC, summary over the panel; assay type: cell-based; settings: summary of the panel
Procedure: as §1

[3] = system: murine macrophage RAW 264.7; assay: Cytotoxicity, MTT assay; assay type: cell-based, mouse
Procedure: The cytotoxicity of Ple-AB toward the murine macrophage RAW 264.7 (Peking Union Medical College) was tested using the MTT assay ([Wang et al., 2018]). Cells (2.5 × 10^4 CFU/mL) were incubated at 37°C for 24 h, and thereafter Ple-AB at a concentration of 2–256 μg/mL was added for 24 h. The supernatant was washed twice, […] 3-(4,5-dimethylthiazol-2-yl)-2,5-diphenyltetrazolium bromide (MTT) solution was added, and the mixture was incubated for 4 h. The absorbance of each well was measured at 570 nm using a microplate reader. PBS (Acontrol) was used as the control. Survival rate (%) = (A/Acontrol) × 100 was calculated.

ICR mice [4] = assay: In vivo safety: hematological indices; parameters: RDW-CV / MCHC: unit not given here; settings: 10 mg/kg i.p. for six consecutive days, blood on 7th day
Procedure: (§2) Eight 6-week-old ICR mice were randomly divided into two groups and injected intraperitoneally with Ple-AB (10 mg/kg, body weight) and saline for six consecutive days. […] They were weighed daily, and blood was collected on the 7th day for hematological and biochemical analyses. Simultaneously, the heart, liver, spleen, lungs, and kidneys were collected for tissue fixation and hematoxylin–eosin (HE) staining to observe any pathological changes ([Shishkina et al., 2023]).

ICR mice [5] = assay: In vivo safety: serum biochemical indices; settings: 10 mg/kg i.p. for six consecutive days
Procedure: as §2

S. aureus ATCC43300 [6] = assay: Thermal stability read out as MIC; assay type: physicochemical, Staphylococcus aureus; settings: 1 h; for MIC after heat treatment: triplicates
Procedure: (§3) The stability of Ple-AB was assessed based on its antibacterial activity against S. aureus ATCC43300. Temperature stability was determined by incubation at 20, 40, 60, 80, and 100°C for 1 h ([Li et al., 2020]). The pH stability was determined by incubation in buffers with a pH of 2, 4, 6, 8, and 10 for 4 h ([Yang et al., 2017]). The peptides were incubated with different concentrations of metal ions, serum, artificial gastric fluid, and simulated intestinal fluid to assess their stability in the blood and intestines ([Lyu et al., 2019]). All the treatments were performed in triplicates.

S. aureus ATCC43300 [7] = assay: pH stability read out as MIC; assay type: physicochemical, Staphylococcus aureus; settings: for MIC after pH treatment: triplicates
Procedure: as §3

S. aureus ATCC43300 [8] = assay: Salt (metal ion) stability read out as MIC; assay type: cell-based, Staphylococcus aureus; settings: triplicates
Procedure: as §3

S. aureus ATCC43300 [9] = assay: Stability in simulated (artificial) intestinal fluid read out as MIC; assay type: in vitro ADME, Staphylococcus aureus
Procedure: as §3

S. aureus ATCC43300 [10] = assay: Serum stability read out as MIC; assay type: in vitro ADME, Staphylococcus aureus; settings: 1–8 h, triplicates
Procedure: as §3

[11] = micro broth dilution, 1 × 10^5 CFU/mL, repeated thrice

## CC[C@H](C)[C@@H]1NC(=O)[C@H](CO)NC(=O)[C@H](CCCCN)NC(=O)[C@@H]2CSSC[C@@H](C(=O)N[C@@H](Cc3ccc(O)cc3)C(=O)O)NC(=O)[C@H](CCCCN)NC(=O)[C@@H]3CSSC[C@H](NC(=O)[C@H](CCC(N)=O)NC(=O)[C@H](CCSC)NC(=O)[C@H](CCC(=O)O)NC(=O)[C@H](CC(=O)O)NC(=O)[C@H](Cc4c[nH]c5ccccc45)NC(=O)[C@@H]4CCCN4C(=O)[C@@H](NC(=O)CNC(=O)[C@H](Cc4ccccc4)NC(=O)CN)CSSC[C@H](NC(=O)[C@H](Cc4ccc(O)cc4)NC(=O)CNC(=O)CNC(=O)[C@H](CCCCN)NC(=O)[C@H](Cc4ccc(O)cc4)NC(=O)CNC(=O)[C@H](CCCCN)NC1=O)C(=O)N[C@@H](C)C(=O)N[C@@H](CCCCN)C(=O)NCC(=O)NCC(=O)N[C@@H](Cc1ccccc1)C(=O)N[C@@H](C(C)C)C(=O)N3)C(=O)N[C@@H](Cc1c[nH]cn1)C(=O)N[C@@H](CC(N)=O)C(=O)N[C@@H](Cc1c[nH]cn1)C(=O)N2 [Ple-AB] (H-GFGCPWDEMQCHNHCKSIKGYKGGYCAKGGFVCKCY-OH; disulfide 4-26, 11-33, 15-35; N-terminus and C-terminus assumed)
S. aureus ATCC25923; S. aureus ATCC25923
  MBC: 64 µg/mL (≈ 16 µM)
S. aureus ATCC25923; [11]
  MIC: 16 µg/mL (≈ 4 µM)
S. aureus ATCC43300 [1]; S. aureus ATCC43300
  MBC: 32 µg/mL (≈ 8 µM)
S. aureus ATCC43300 [1]; [11]
  MIC: 16 µg/mL (≈ 4 µM)
S. aureus ATCC43300 [1]; untreated control of the stability test, triplicates
  MIC: 16 µg/mL (≈ 4 µM)
S. aureus CVCC546; S. aureus CVCC546
  MBC: 16 µg/mL (≈ 4 µM)
S. aureus CVCC546; [11]
  MIC: 8 µg/mL (≈ 2 µM)
S. aureus E48; S. aureus E48
  MBC: 16 µg/mL (≈ 4 µM)
S. aureus E48; bovine clinical strain, micro broth dilution, 1 × 10^5 CFU/mL, repeated thrice
  MIC: 4 µg/mL (≈ 1 µM)
[2]; S. agalactiae CAU-FRI-2022-02
  MBC: 4 µg/mL (≈ 1 µM)
[2]; bovine mastitis isolate, micro broth dilution, 1 × 10^5 CFU/mL, repeated thrice
  MIC: 2 µg/mL (≈ 0.5 µM)
Streptococcus
  MICs, range over Streptococcus: 2 to 4 µg/mL
gram-negative bacteria
  Activity against gram-negative bacteria: inactive
[3]; RAW264.7, 256 μg/mL
  Cytotoxicity: < 1%
[3]; RAW264.7, 2–256 μg/mL, 24 h, MTT, A570
  Cell survival rate: above 80%
ICR mice [4]
  BASO: 0.09 ± 0.027 10^9/L
  BASO %: 1.09 ± 0.34%
  EO: 0.19 ± 0.106 10^9/L
  EO %: 2.33 ± 1.24%
  HBG: 128 ± 12 g/L
  HCT %: 41.3 ± 2.4%
  LYM: 5.89 ± 0.585 10^9/L
  LYM %: 74.8 ± 3.02%
  MCH: 13.48 ± 0.67 pg
  MCHC: 32.86 ± 1.73
  MCV: 41.73 ± 1.17 fL
  MONO: 0.24 ± 0.066 10^9/L
  MONO %: 3 ± 0.49%
  MPV: 6.63 ± 0.57 fL
  NEUT: 1.49 ± 0.354 10^9/L
  NEUT %: 18.78 ± 1.66%
  PCT %: 0.02 ± 0.01%
  PDW %: 15.85 ± 0.75%
  PLCR %: 15.35 ± 3.65%
  PLT: 782.3 ± 48.25 10^9/L
  RBC: 9.44 ± 0.82 10^12/L
  RDW-CV: 18.58 ± 1.97
  RDW-SD %: 44.55 ± 3.65%
  WBC: 7.89 ± 0.94 10^9/L
  Whole blood cell profiles versus control group: not significantly different
ICR mice [5]; blood on 7th day
  Serum biochemical indices versus control group: not significantly different
ICR mice [5]; serum on 7th day
  ALT: 49.07 ± 6.21 IU/L
  AST: 25.85 ± 2.33 IU/L
  Albumin: 35.59 ± 4.58 g/L
  Ca^2+: 1.38 ± 0.06 mmol/L
  Creatinine: 83.13 ± 4.57 µmol/L
  Globulin: 18.82 ± 0.25 g/L
  Glucose: 1.59 ± 0.15 mmol/L
  Phosphorous: 3.33 ± 0.20 mmol/L
  Total protein: 54.41 ± 4.56 g/L
  Urea Nitrogen: 11.6 ± 0.8 mmol/L
S. aureus ATCC43300 [6]; 20°C
  MIC after heat treatment: 16 µg/mL (≈ 4 µM)
S. aureus ATCC43300 [6]; 40°C
  MIC after heat treatment: 16 µg/mL (≈ 4 µM)
S. aureus ATCC43300 [6]; 60°C
  MIC after heat treatment: 16 µg/mL (≈ 4 µM)
S. aureus ATCC43300 [6]; 80°C
  MIC after heat treatment: 16 µg/mL (≈ 4 µM)
S. aureus ATCC43300 [6]; 100°C
  MIC after heat treatment: 32 µg/mL (≈ 8 µM)
S. aureus ATCC43300 [6]; 100°C, versus control
  Increase of MIC after heat treatment: twofold
S. aureus ATCC43300 [7]; buffer pH 2, 4 h
  MIC after pH treatment: 16 μg/mL
S. aureus ATCC43300 [7]; buffer pH 4, 4 h
  MIC after pH treatment: 16 μg/mL
S. aureus ATCC43300 [7]; buffer pH 6, 4 h
  MIC after pH treatment: 16 μg/mL
S. aureus ATCC43300 [7]; buffer pH 8, 4 h
  MIC after pH treatment: 16 μg/mL
S. aureus ATCC43300 [7]; buffer pH 10, 4 h
  MIC after pH treatment: 32 μg/mL
S. aureus ATCC43300 [7]; pH 10, 4 h, versus control
  Increase of MIC after pH treatment: twofold
S. aureus ATCC43300 [8]; Ca^2+ (2.5 mM)
  MIC with salts: 16 µg/mL
S. aureus ATCC43300 [8]; Fe^3+ (4 μM)
  MIC with salts: 16 µg/mL
S. aureus ATCC43300 [8]; K^+ (4.5 mM)
  MIC with salts: 16 µg/mL
S. aureus ATCC43300 [8]; Mg^2+ (1 mM)
  MIC with salts: 16 µg/mL
S. aureus ATCC43300 [8]; NH4^+ (6 μM)
  MIC with salts: 16 µg/mL
S. aureus ATCC43300 [8]; Na^+ (150 mM)
  MIC with salts: 16 µg/mL
S. aureus ATCC43300 [8]; Zn^2+ (8 μM)
  MIC with salts: 16 µg/mL
S. aureus ATCC43300 [9]; Artificial Intestinal Fluid (trypsin), 1 h, read-out MIC, triplicates
  MIC after Artificial Intestinal Fluid: 32 µg/mL (≈ 8 µM)
S. aureus ATCC43300 [9]; simulated intestinal fluids (trypsin), 1 h (lasted for 2 h), from MIC
  Remaining share of initial activity after simulated intestinal fluids: approximately 50%
S. aureus ATCC43300 [10]; Serum (25%)
  MIC after serum: 16 µg/mL (≈ 4 µM)
S. aureus ATCC43300 [10]; Serum (50%)
  MIC after serum: 16 µg/mL (≈ 4 µM)
